Reference: patent US20250120372A1, “HUMANIZED MOUSE MODEL OF FIBROSIS” (The Jackson Laboratory, priority 2021, published 2025)

Columns and labels:
NSG-SGM3 BLT mice [1] = conditions: mouse, in vivo
Description: SLG20 alginate 500 μm diameter spheres (“alginate spheres,” 0.5 ml total implant volume) were implanted into the intraperitoneal (IP) space of pro-fibrotic C57BL/6 mice and various humanized mouse models, retained for 28 days, and analyzed for degree of fibrosis upon alginate sphere retrieval. […] Experiments repeated at least 3 times.
Implanted mice were anesthetized with 3% isoflurane in oxygen and their abdomens were shaved and sterilized using betadine and isopropanol. Preoperatively, all mice received 0.05 mg/kg buprenorphine and 0.2 mL of 0.9% saline SC for pre-surgery analgesia and hydration. A midline incision (0.5 mm) was made and the peritoneal lining was exposed using blunt dissection. The peritoneal wall was then grasped with forceps and a 0.5-1 mm incision was made along the linea alba. 500 μL of spheres were then loaded into a sterile pipette and implanted into the intraperitoneal (IP) space. The incision was then closed using 5-0 PDS II absorbable sutures, and the skin was closed using wound clips and VetBond tissue glue. […] For macrophage depletion, clodrosomes (200 μL/mouse) (Encapsula NanoSciences, Nashville, TN) were injected IP starting at −3 days (prior to implant day 0), and for every 7 days thereafter (on days −3, 4, and 11). […]

NSG-SGM3 BLT mice [2] = conditions: mouse, in vivo, sc
Description: All wild type male immune-competent C57BL/6 mice or immunodeficient strains used for producing humanized models (described below) were ordered pathogen-free from The Jackson Laboratory (Bar Harbor, ME). Implanted mice were anesthetized with 3% isoflurane in oxygen and their abdomens were shaved and sterilized using betadine and isopropanol. Preoperatively, all mice received 0.05 mg/kg buprenorphine and 0.2 mL of 0.9% saline SC for pre-surgery analgesia and hydration.
For phase contrast imaging retrieved materials were gently washed using Krebs buffer and transferred into 35 mm petri dishes for phase contrast microscopy using an EVOS XL microscope (Advanced Microscopy Group). For bright-field imaging of retrieved materials, samples were gently washed using Krebs buffer and transferred into 35 mm petri dishes for bright-field imaging using a Leica Stereoscopic microscope.
Retrieved material-containing tissue (intraperitoneal and/or subcutaneous) was fixed overnight using 4% paraformaldehyde at 4° C. After fixation, alginate sphere or retrieved tissue samples were washed using 70% alcohol. The materials were then paraffin embedded, sectioned at 5 μm thickness and stained according to standard histological (H&E or Masson's Trichrome) methods.

fibrotic encapsulation upon retrieval (NSG-SGM3 BLT mice [2])	Substance	FBR / fibrosis (NSG-SGM3 BLT mice [1])
prominent fibrotic encapsulation	polystyrene [Polystyrene spheres]	fibrosis of synthetic biomaterial polymer implants was observed
	polydimethylsiloxane [PDMS 5 mm molded discs]	fibrosis of synthetic biomaterial polymer implants was observed
